Assay results taken from the NIST ThermoML archive (doi:10.1016/j.jct.2014.05.015).

Assay: mn = molality of the nth substance listed, in mol/kg
Settings: 100 kPa, Liquid; for speed of sound: Frequency=3 MHz, Sing-around technique in a fixed-path interferometer; for mass density: Vibrating tube method

C[N+](C)(C)CC(=O)O.[Cl-] [betaine hydrochloride] + O
Settings | mass density, 293.15 K [kg/m3] | mass density, 298.15 K [kg/m3] | mass density, 303.15 K [kg/m3] | mass density, 308.15 K [kg/m3] | mass density, 313.15 K [kg/m3] | speed of sound, 293.15 K [m/s] | speed of sound, 298.15 K [m/s] | speed of sound, 303.15 K [m/s] | speed of sound, 308.15 K [m/s] | speed of sound, 313.15 K [m/s]
m1 = 0.00988 | 998.597 | 997.445 | 996.042 | 994.425 | 992.605 | 1483.8 | 1497.7 | 1510 | 1520.7 | 1529.8
m1 = 0.02034 | 998.988 | 997.829 | 996.428 | 994.806 | 992.98 | 1484.8 | 1498.7 | 1511 | 1521.7 | 1530.7
m1 = 0.03199 | 999.418 | 998.253 | 996.847 | 995.225 | 993.389 | 1486 | 1499.8 | 1512.1 | 1522.8 | 1531.8
m1 = 0.03929 | 999.672 | 998.509 | 997.099 | 995.477 | 993.638 | 1486.6 | 1500.5 | 1512.8 | 1523.5 | 1532.4
m1 = 0.04992 | 1000.05 | 998.883 | 997.471 | 995.846 | 993.998 | 1487.6 | 1501.3 | 1513.6 | 1524.4 | 1533.3
m1 = 0.05925 | 1000.37 | 999.196 | 997.795 | 996.165 | 994.316 | 1488.4 | 1502.3 | 1514.2 | 1525.1 | 1534.1
